Laboratory results reported in patent US20260176267A1, “PREPARATION OF IMIDAZOPYRIDINE AND IMIDAZOPYRIDAZINE DERIVATIVES AS NOVEL DIACYLGLYCERIDE O-ACYLTRANSFERASE 2 INHIBITORS” (Merck Sharp & Dohme LLC, priority 2022, published 2026).

What follows are molecules tested against T1, human DGAT2 (hDGAT2) (Homo sapiens, UniProt Q96PD7) (assay: DGAT2 Enzymatic Activity Assay). Details: membrane prep of Sf-9 cells expressing hDGAT2; 13C18-triolein product by LC/MS/MS; 25 μM diolein, 5 μM 13C oleoyl-CoA, rt.
T1 construct: made in house; host or cells: Sf-9 insect cells (baculovirus), membrane fraction
T1 sequence (Q96PD7 1-388): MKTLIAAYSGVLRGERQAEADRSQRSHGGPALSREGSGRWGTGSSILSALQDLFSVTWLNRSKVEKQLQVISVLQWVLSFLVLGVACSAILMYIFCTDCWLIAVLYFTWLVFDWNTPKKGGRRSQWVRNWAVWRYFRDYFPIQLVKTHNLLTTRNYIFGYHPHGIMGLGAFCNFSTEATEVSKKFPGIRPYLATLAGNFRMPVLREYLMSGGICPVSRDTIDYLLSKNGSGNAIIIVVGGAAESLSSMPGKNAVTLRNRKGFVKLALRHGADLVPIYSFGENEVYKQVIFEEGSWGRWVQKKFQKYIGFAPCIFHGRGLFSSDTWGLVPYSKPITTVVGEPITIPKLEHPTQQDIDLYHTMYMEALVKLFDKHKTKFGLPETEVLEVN
Type: biochemical
In short: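 Membranes from Sf-9 cells expressing untagged human DGAT2 (baculovirus, 48 h) used as enzyme at rt. The product ^13C18-triolein is quantified by LC/MS/MS against a ^13C21-triolein internal standard. Percent inhibition is taken from high and low controls, and IC50 is derived.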

Row | SMILES | IC50
1 | Cc1c(C(=O)NC2(C)CCS(=O)(=O)C(C)(C)C2)nc2ccc(Oc3ncc(Cl)cc3OCC(F)F)cn12 (centres unmarked) [Example 100, 6-[[5-chloro-3-(2,2-difluoroethoxy)-2-pyridyl]oxy]-3-methyl-N-(2,2,4-trimethyl-1,1-dioxo-thian-4-yl)imidazo[1,2-a]pyridine-2-carboxamide] | 114 nM
2 | Cc1c(C(=O)N[C@]2(C)CCS(=O)(=O)C2)nc2ccc(Oc3ncc(F)cc3OCC(F)(F)F)cn12 [Example 101] | 88 nM
3 | Cc1c(C(=O)NC2(C)CCN(C(=O)C(F)(F)F)CC2)nc2ccc(Oc3ncc(F)cc3OCC(F)(F)F)cn12 [Example 102, 6-[[5-fluoro-3-(2,2,2-trifluoroethoxy)-2-pyridyl]oxy]-3-methyl-N-[4-methyl-1-(2,2,2-trifluoroacetyl)-4-piperidyl]imidazo[1,2-a]pyridine-2-carboxamide] | 128 nM
4 | Cc1c(C(=O)NC2(C)CCS(=O)(=O)CC2)nc2ccc(Oc3ncc(F)cc3OCC(F)(F)C(F)F)cn12 [Example 104, 6-[[5-fluoro-3-(2,2,3,3-tetrafluoropropoxy)-2-pyridyl]oxy]-3-methyl-N-(4-methyl-1,1-dioxo-thian-4-yl)imidazo[1,2-a]pyridine-2-carboxamide] | 342 nM
5 | Cc1c(C(=O)NC2CCS(=O)(=O)C(C)(C)C2)nc2ccc(Oc3ncc(F)cc3OCC(F)(F)F)cn12 (centres unmarked) [Example 105, N-(2,2-dimethyl-1,1-dioxo-thian-4-yl)-6-[[5-fluoro-3-(2,2,2-trifluoroethoxy)-2-pyridyl]oxy]-3-methyl-imidazo[1,2-a]pyridine-2-carboxamide] | 193 nM
6 | CCC1(NC(=O)c2nc3ccc(Oc4nccnc4OCC(F)(F)F)cn3c2C)CCS(=O)(=O)CC1 [Example 106, N-(4-ethyl-1,1-dioxo-thian-4-yl)-3-methyl-6-[3-(2,2,2-trifluoroethoxy)pyrazin-2-yl]oxy-imidazo[1,2-a]pyridine-2-carboxamide] | 638 nM
7 | Cc1ccnc(Oc2ccc3nc(C(=O)NC4(C)CCS(=O)(=O)CC4)c(C)n3c2)c1OCC(F)(F)F [Example 107, 3-methyl-N-(4-methyl-1,1-dioxo-thian-4-yl)-6-[[4-methyl-3-(2,2,2-trifluoroethoxy)-2-pyridyl]oxy]imidazo[1,2-a]pyridine-2-carboxamide] | 634 nM
8 | Cc1cnc(OCC(F)(F)F)c(Oc2ccc3nc(C(=O)NC4(C)CCS(=O)(=O)CC4)c(C)n3c2)n1 [Example 108, 3-methyl-N-(4-methyl-1,1-dioxo-thian-4-yl)-6-[6-methyl-3-(2,2,2-trifluoroethoxy)pyrazin-2-yl]oxy-imidazo[1,2-a]pyridine-2-carboxamide] | 131 nM
9 | Cc1c(C(=O)NC2(C)CCS(=O)(=O)CC2)nc2ccc(Oc3nccc(Cl)c3OCC(F)(F)F)cn12 [Example 109, 6-[[4-chloro-3-(2,2,2-trifluoroethoxy)-2-pyridyl]oxy]-3-methyl-N-(4-methyl-1,1-dioxo-thian-4-yl)imidazo[1,2-a]pyridine-2-carboxamide] | 224 nM
10 | Cc1c(C(=O)NCC2(C)CS(=O)(=O)C2)nc2ccc(Oc3ncc(F)cc3OCC(F)(F)F)cn12 [Example 110, 6-[[5-fluoro-3-(2,2,2-trifluoroethoxy)-2-pyridyl]oxy]-3-methyl-N-[(3-methyl-1,1-dioxo-thietan-3-yl)methyl]imidazo[1,2-a]pyridine-2-carboxamide] | 957 nM
11 | Cc1ccc(OCC(F)(F)F)c(Oc2ccc3nc(C(=O)NC4(C)CCS(=O)(=O)CC4)c(C)n3c2)n1 [Example 111] | 298 nM
12 | Cc1c(C(=O)NC2(CC(F)(F)F)CCCOC2)nc2ccc(Oc3ncccc3OCC(F)(F)F)cn12 (centres unmarked) [Example 112, 3-methyl-6-[[3-(2,2,2-trifluoroethoxy)-2-pyridyl]oxy]-N-[3-(2,2,2-trifluoroethyl)tetrahydropyran-3-yl]imidazo[1,2-a]pyridine-2-carboxamide] | 3380 nM
13 | Cc1c(C(=O)N[C@H]2CCC(=O)NC2)nc2ccc(Oc3ncccc3OCC(F)(F)F)cn12 [Example 113, 3-methyl-N-[(3S)-6-oxo-3-piperidyl]-6-[[3-(2,2,2-trifluoroethoxy)-2-pyridyl]oxy]imidazo[1,2-a]pyridine-2-carboxamide] | > 9990 nM
14 | CC(C)c1c(C(=O)NC2(C)CCS(=O)(=O)CC2)nc2ccc(Oc3ncccc3OCC(F)(F)F)cn12 [Example 116, 3-isopropyl-N-(4-methyl-1,1-dioxo-thian-4-yl)-6-[[3-(2,2,2-trifluoroethoxy)-2-pyridyl]oxy]imidazo[1,2-a]pyridine-2-carboxamide] | 413 nM

Molecules with a lower IC50, results first:

Row | IC50 | SMILES
15 | 2.9 nM | Cc1c(C(=O)NC2CCS(=O)(=O)C(C)(C)C2)nc2ccc(Oc3ncc(F)cc3OCC(F)F)cn12 (centres unmarked) [Example 93, 6-[[3-(2,2-difluoroethoxy)-5-fluoro-2-pyridyl]oxy]-N-(2,2-dimethyl-1,1-dioxo-thian-4-yl)-3-methyl-imidazo[1,2-a]pyridine-2-carboxamide]
16 | 12 nM | Cc1c(C(=O)NC2(C)CCS(=O)(=O)CC2)nc2ccc(Oc3ncc(F)cc3OCC(C)(F)F)cn12 [Example 94, 6-[[3-(2,2-difluoropropoxy)-5-fluoro-2-pyridyl]oxy]-3-methyl-N-(4-methyl-1,1-dioxo-thian-4-yl)imidazo[1,2-a]pyridine-2-carboxamide]
17 | 3 nM | CCOc1cc(C(F)(F)F)cnc1Oc1ccc2nc(C(=O)NC3(C)CCS(=O)(=O)CC3)c(C)n2c1 [Example 95, 6-[[3-ethoxy-5-(trifluoromethyl)-2-pyridyl]oxy]-3-methyl-N-(4-methyl-1,1-dioxo-thian-4-yl)imidazo[1,2-a]pyridine-2-carboxamide]
18 | 5.7 nM | Cc1cnc(Oc2ccc3nc(C(=O)NC4(C)CS(=O)(=O)C4)c(C)n3c2)c(OCC(F)(F)F)n1 [Example 96]
19 | 4 nM | Cc1c(C(=O)NC2CC(C(F)(F)F)C2)nc2ccc(Oc3ncc(F)cc3OCC(F)F)cn12 (centres unmarked) [Example 97, 6-[[3-(2,2-difluoroethoxy)-5-fluoro-2-pyridyl]oxy]-3-methyl-N-[3-(trifluoromethyl)cyclobutyl] imidazo[1,2-a]pyridine-2-carboxamide]
20 | 56 nM | Cc1c(C(=O)NC23CC(F)(C2)C3)nc2ccc(Oc3ncc(F)cc3OCC(F)F)cn12 [Example 99]
21 | 71 nM | Cc1c(C(=O)NC2(C)CS(=O)(=O)C2)nc2ccc(Oc3ncc(C(F)(F)F)nc3OCC(F)(F)F)cn12 [Example 103, 3-methyl-N-(3-methyl-1,1-dioxo-thietan-3-yl)-6-[3-(2,2,2-trifluoroethoxy)-5-(trifluoromethyl)pyrazin-2-yl]oxy-imidazo[1,2-a]pyridine-2-carboxamide]
22 | 64 nM | CCOc1cccnc1Oc1ccc2nc(C(=O)NC3(C)CS(=O)(=O)C3)c(CC)n2c1 [Example 114, 6-[(3-ethoxy-2-pyridyl)oxy]-3-ethyl-N-(3-methyl-1,1-dioxo-thietan-3-yl)imidazo[1,2-a]pyridine-2-carboxamide]
23 | 44 nM | CCc1c(C(=O)NC2(C)CCS(=O)(=O)CC2)nc2ccc(Oc3ncccc3OCC(F)(F)F)cn12 [Example 115, 3-ethyl-N-(4-methyl-1,1-dioxo-thian-4-yl)-6-[[3-(2,2,2-trifluoroethoxy)-2-pyridyl]oxy]imidazo[1,2-a]pyridine-2-carboxamide]
24 | 1.2 nM | Cc1c(C(=O)NC2(C)CCS(=O)(=O)CC2)nc2c(F)cc(Oc3ncccc3OCC(F)(F)F)cn12 [Example 117, 8-fluoro-3-methyl-N-(4-methyl-1,1-dioxo-thian-4-yl)-6-[[3-(2,2,2-trifluoroethoxy)-2-pyridyl]oxy]imidazo[1,2-a]pyridine-2-carboxamide]
25 | 1.4 nM | Cc1c(C(=O)NC2(C)CCS(=O)(=O)CC2)nc2cc(F)c(Oc3ncc(F)cc3OCC(F)(F)F)cn12 [Example 118, 7-fluoro-6-[[5-fluoro-3-(2,2,2-trifluoroethoxy)-2-pyridyl]oxy]-3-methyl-N-(4-methyl-1,1-dioxo-thian-4-yl)imidazo[1,2-a]pyridine-2-carboxamide]
26 | 1 nM | Cc1c(C(=O)NC2(C)CCS(=O)(=O)CC2)nc2cc(F)c(Oc3ncc(Cl)cc3OCC(F)(F)F)cn12 [Example 119, 6-[[5-chloro-3-(2,2,2-trifluoroethoxy)-2-pyridyl]oxy]-7-fluoro-3-methyl-N-(4-methyl-1,1-dioxo-thian-4-yl)imidazo[1,2-a]pyridine-2-carboxamide]
27 | 4.3 nM | Cc1c(C(=O)NC2(C)CS(=O)(=O)C2)nc2cc(F)c(Oc3ncc(Cl)cc3OCC(F)(F)F)cn12 [Example 120, 6-[[5-chloro-3-(2,2,2-trifluoroethoxy)-2-pyridyl]oxy]-7-fluoro-3-methyl-N-(3-methyl-1,1-dioxo-thietan-3-yl)imidazo[1,2-a]pyridine-2-carboxamide]
28 | 41 nM | Cc1c(C(=O)NC2(C)CS(=O)(=O)C2)nc2cc(F)c(Oc3ncc(F)cc3OCC(F)(F)F)cn12 [Example 121, 7-fluoro-6-[[5-fluoro-3-(2,2,2-trifluoroethoxy)-2-pyridyl]oxy]-3-methyl-N-(3-methyl-1,1-dioxo-thietan-3-yl)imidazo[1,2-a]pyridine-2-carboxamide]
29 | 7.7 nM | Cc1c(C(=O)NC2(C)CCS(=O)(=O)CC2)nc2cc(F)c(Oc3nccnc3OCC(F)(F)F)cn12 [Example 122, 7-fluoro-3-methyl-N-(4-methyl-1,1-dioxo-thian-4-yl)-6-[3-(2,2,2-trifluoroethoxy)pyrazin-2-yl]oxy-imidazo[1,2-a]pyridine-2-carboxamide]
